Test results from US12723063B2, “GIPR-agonist compounds” (Eli Lilly and Company, priority 2019, dated 2026).
pKi: −log10 of the molar value. *1 amine or outer side, *2 acyl side, *3 side chain or, on linkers, in order; H or OH if unused. Where a SMILES comes first, the peptide text is derived from it. Side-chain parts run from the residue outwards. [ ]: non-standard residue; d: D form. The star is where a group is joined. C20 diacid = O=C(O)CCCCCCCCCCCCCCCCCCC(=O)*; C18 diacid = O=C(O)CCCCCCCCCCCCCCCCC(=O)*; αMePhe(2-F) = C[C@](N)(Cc1ccccc1F)C(=O)O; γGlu = O=C(O)[C@H](CCC(=O)[*:2])N[*:1]; 4Pal = N[C@@H](Cc1ccncc1)C(=O)O; αMeL = CC(C)C[C@](C)(N)C(=O)O; Iva = CC[C@](C)(N)C(=O)O; Orn = NCCC[C@H](N)C(=O)O; AEEA = NCCOCCOCC(=O)O; Aib = CC(C)(N)C(=O)O

Biological target: T1, human GLP-1R (Homo sapiens, UniProt P43220)
T1 construct: expressed in transfected cells; crude membranes
T1 sequence (P43220 24-463): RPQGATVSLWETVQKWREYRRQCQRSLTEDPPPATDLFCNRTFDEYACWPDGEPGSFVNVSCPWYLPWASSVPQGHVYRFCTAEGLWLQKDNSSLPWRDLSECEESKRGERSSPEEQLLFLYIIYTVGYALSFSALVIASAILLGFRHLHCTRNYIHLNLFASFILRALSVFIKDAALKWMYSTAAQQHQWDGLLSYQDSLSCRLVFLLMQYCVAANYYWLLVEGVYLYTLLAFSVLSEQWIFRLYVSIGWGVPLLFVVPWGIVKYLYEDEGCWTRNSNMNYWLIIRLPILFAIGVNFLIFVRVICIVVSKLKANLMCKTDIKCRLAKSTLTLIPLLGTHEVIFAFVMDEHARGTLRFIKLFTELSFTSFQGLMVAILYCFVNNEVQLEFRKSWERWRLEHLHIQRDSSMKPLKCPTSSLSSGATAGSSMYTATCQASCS
Experiment: [125I]-GLP-1 binding, SPA with WGA beads, 0.1% bacitracin
Settings: geometric mean, read-out: hGLP1R Ki
Outline: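 Binding buffer was 25 mM HEPES pH 7.4 with 2.5 mM CaCl2, 1 mM MgCl2, 0.1% (w/v) bacitracin, 0.003% Tween-20 and EDTA-free protease inhibitors. Four-parameter regression gave IC50, converted to Ki (geometric mean, SEM, n independent days).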

| SMILES | pKi |
| --- | --- |
| CC[C@H](C)[C@H](NC(=O)[C@H](CO)NC(=O)[C@H](Cc1ccc(O)cc1)NC(=O)[C@H](CC(=O)O)NC(=O)[C@H](CO)NC(=O)[C@@H](NC(=O)[C@](C)(CC)NC(=O)[C@@H](NC(=O)CNC(=O)[C@H](CCC(=O)O)NC(=O)C(C)(C)NC(=O)[C@@H](N)Cc1ccc(O)cc1)[C@@H](C)O)[C@@H](C)CC)C(=O)N[C@@](C)(CC(C)C)C(=O)N[C@@H](CC(C)C)C(=O)N[C@@H](CC(=O)O)C(=O)N[C@@H](CCCCN)C(=O)N[C@@H](CCCCNC(=O)COCCOCCNC(=O)COCCOCCNC(=O)CC[C@H](NC(=O)CCCCCCCCCCCCCCCCCCC(=O)O)C(=O)O)C(=O)N[C@@H](Cc1c[nH]cn1)C(=O)N[C@@H](CCC(N)=O)C(=O)NC(C)(C)C(=O)N[C@@H](CC(=O)O)C(=O)N[C@@H](Cc1ccccc1)C(=O)N[C@H](C(=O)N[C@@H](CCC(=O)O)C(=O)N[C@@H](Cc1ccncc1)C(=O)N[C@@H](CC(C)C)C(=O)N[C@@H](CC(C)C)C(=O)N[C@@H](CCC(=O)O)C(=O)N[C@@H](C)C(=O)NCC(=O)N1CCC[C@H]1C(=O)N[C@@H](CO)C(=O)N[C@@H](CO)C(=O)NCC(=O)N[C@@H](C)C(=O)N1CCC[C@H]1C(=O)N1CCC[C@H]1C(=O)N1CCC[C@H]1C(=O)N[C@@H](CO)C(N)=O)C(C)C [Example 88] (H-Y[Aib]EGT[Iva]ISDYSI[αMeL]LDKK([AEEA-AEEA-γGlu-C20 diacid])HQ[Aib]DFVE[4Pal]LLEAGPSSGAPPPS-NH2) | 6.58 |
| CC[C@H](C)[C@H](NC(=O)[C@H](CO)NC(=O)[C@H](Cc1ccc(O)cc1)NC(=O)[C@H](CC(=O)O)NC(=O)[C@H](CO)NC(=O)[C@@H](NC(=O)[C@](C)(Cc1ccccc1F)NC(=O)[C@@H](NC(=O)CNC(=O)[C@H](CCC(=O)O)NC(=O)C(C)(C)NC(=O)[C@@H](N)Cc1ccc(O)cc1)[C@@H](C)O)[C@@H](C)CC)C(=O)N[C@@H](C)C(=O)N[C@@H](CC(C)C)C(=O)N[C@@H](CC(=O)O)C(=O)N[C@@H](CCCCN)C(=O)N[C@H](C(=O)N[C@@H](Cc1c[nH]cn1)C(=O)N[C@@H](CCC(N)=O)C(=O)NC(C)(C)C(=O)N[C@@H](CCC(=O)O)C(=O)N[C@@H](Cc1ccccc1)C(=O)N[C@H](C(=O)N[C@@H](CC(N)=O)C(=O)N[C@@H](Cc1ccc(O)cc1)C(=O)N[C@@H](CCCCNC(=O)COCCOCCNC(=O)COCCOCCNC(=O)CC[C@H](NC(=O)CCCCCCCCCCCCCCCCCCC(=O)O)C(=O)O)C(=O)N[C@@H](CC(C)C)C(=O)N[C@@H](C)C(=O)NCC(=O)NCC(=O)N1CCC[C@H]1C(=O)N[C@@H](CO)C(=O)N[C@@H](CO)C(=O)NCC(=O)N[C@@H](C)C(=O)N1CCC[C@H]1C(=O)N1CCC[C@H]1C(=O)N1CCC[C@H]1C(=O)N[C@@H](CO)C(N)=O)C(C)C)[C@@H](C)CC [Example 98] (H-Y[Aib]EGT[αMePhe(2-F)]ISDYSIALDKIHQ[Aib]EFVNYK([AEEA-AEEA-γGlu-C20 diacid])LAGGPSSGAPPPS-NH2) | 6.51 |
| CC[C@H](C)[C@H](NC(=O)[C@H](CCCN)NC(=O)[C@H](CC(=O)O)NC(=O)[C@H](CC(C)C)NC(=O)[C@](C)(CC(C)C)NC(=O)[C@@H](NC(=O)[C@H](CO)NC(=O)[C@H](Cc1ccc(O)cc1)NC(=O)[C@H](CC(=O)O)NC(=O)[C@H](CO)NC(=O)[C@@H](NC(=O)[C@H](Cc1ccccc1)NC(=O)[C@@H](NC(=O)CNC(=O)[C@H](CCC(=O)O)NC(=O)C(C)(C)NC(=O)[C@@H](N)Cc1ccc(O)cc1)[C@@H](C)O)[C@@H](C)CC)[C@@H](C)CC)C(=O)N[C@@H](Cc1c[nH]cn1)C(=O)N[C@@H](CCC(N)=O)C(=O)NC(C)(C)C(=O)N[C@@H](CC(=O)O)C(=O)N[C@@H](Cc1ccccc1)C(=O)N[C@H](C(=O)N[C@@H](CCC(=O)O)C(=O)N[C@@H](Cc1ccncc1)C(=O)N[C@@H](CCCCNC(=O)COCCOCCNC(=O)COCCOCCNC(=O)CC[C@H](NC(=O)CCCCCCCCCCCCCCCCC(=O)O)C(=O)O)C(=O)N[C@@H](CC(C)C)C(=O)N[C@@H](CCC(=O)O)C(=O)NCC(=O)NCC(=O)N1CCC[C@H]1C(=O)N[C@@H](CO)C(=O)N[C@@H](CO)C(=O)NCC(=O)N[C@@H](C)C(=O)N1CCC[C@H]1C(=O)N1CCC[C@H]1C(=O)N1CCC[C@H]1C(=O)N[C@@H](CO)C(N)=O)C(C)C [Example 111] (H-Y[Aib]EGTFISDYSI[αMeL]LD[Orn]IHQ[Aib]DFVE[4Pal]K([AEEA-AEEA-γGlu-C18 diacid])LEGGPSSGAPPPS-NH2) | < 6.04 |
| CC[C@H](C)[C@H](NC(=O)[C@H](CO)NC(=O)[C@H](Cc1ccc(O)cc1)NC(=O)[C@H](CC(=O)O)NC(=O)[C@H](CO)NC(=O)[C@@H](NC(=O)[C@H](Cc1ccccc1)NC(=O)[C@@H](NC(=O)CNC(=O)[C@H](CCC(=O)O)NC(=O)C(C)(C)NC(=O)[C@@H](N)Cc1ccc(O)cc1)[C@@H](C)O)[C@@H](C)CC)C(=O)N[C@@H](C)C(=O)N[C@@H](CC(C)C)C(=O)N[C@@H](CC(=O)O)C(=O)N[C@@H](CCCCN)C(=O)N[C@H](C(=O)N[C@@H](Cc1c[nH]cn1)C(=O)N[C@@H](CCC(N)=O)C(=O)NC(C)(C)C(=O)N[C@@H](CCC(=O)O)C(=O)N[C@@H](Cc1ccccc1)C(=O)N[C@H](C(=O)N[C@@H](CC(N)=O)C(=O)N[C@@H](Cc1ccc(O)cc1)C(=O)N[C@@H](CCCCNC(=O)COCCOCCNC(=O)COCCOCCNC(=O)CC[C@H](NC(=O)CCCCCCCCCCCCCCCCCCC(=O)O)C(=O)O)C(=O)N[C@@H](CC(C)C)C(=O)N[C@@H](C)C(=O)NCC(=O)NCC(=O)N1CCC[C@H]1C(=O)N[C@@H](CO)C(=O)N[C@@H](CO)C(=O)NCC(=O)N[C@@H](C)C(=O)N1CCC[C@H]1C(=O)N1CCC[C@H]1C(=O)N1CCC[C@H]1C(=O)N[C@@H](CO)C(N)=O)C(C)C)[C@@H](C)CC [Example 96] (H-Y[Aib]EGTFISDYSIALDKIHQ[Aib]EFVNYK([AEEA-AEEA-γGlu-C20 diacid])LAGGPSSGAPPPS-NH2) | < 6.04 |
| CC[C@H](C)[C@H](NC(=O)[C@H](CO)NC(=O)[C@H](Cc1ccc(O)cc1)NC(=O)[C@H](CC(=O)O)NC(=O)[C@H](CO)NC(=O)[C@@H](NC(=O)[C@H](Cc1ccccc1)NC(=O)[C@@H](NC(=O)CNC(=O)[C@H](CCC(=O)O)NC(=O)[C@@H](C)NC(=O)[C@@H](N)Cc1ccc(O)cc1)[C@@H](C)O)[C@@H](C)CC)C(=O)N[C@@H](CC(C)C)C(=O)N[C@@H](CC(C)C)C(=O)N[C@@H](CC(=O)O)C(=O)N[C@@H](CCCCN)C(=O)N[C@@H](CCCCNC(=O)COCCOCCNC(=O)COCCOCCNC(=O)CC[C@H](NC(=O)CCCCCCCCCCCCCCCCCCC(=O)O)C(=O)O)C(=O)N[C@@H](Cc1c[nH]cn1)C(=O)N[C@@H](CCC(N)=O)C(=O)N[C@@H](CCC(N)=O)C(=O)N[C@@H](CC(=O)O)C(=O)N[C@@H](Cc1ccccc1)C(=O)N[C@H](C(=O)N[C@@H](CC(N)=O)C(=O)N[C@@H](Cc1ccc(O)cc1)C(=O)N[C@@H](CC(C)C)C(=O)N[C@@H](CC(C)C)C(=O)N[C@@H](C)C(=O)N[C@@H](CCC(N)=O)C(=O)NCC(=O)N1CCC[C@H]1C(=O)N[C@@H](CO)C(=O)N[C@@H](CO)C(=O)NCC(=O)N[C@@H](C)C(=O)N1CCC[C@H]1C(=O)N1CCC[C@H]1C(=O)N1CCC[C@H]1C(=O)N[C@@H](CO)C(N)=O)C(C)C [Example 15] (H-Y[dA]EGTFISDYSILLDKK([AEEA-AEEA-γGlu-C20 diacid])HQQDFVNYLLAQGPSSGAPPPS-NH2) | < 6.63 |
